# Source: US12397031B2, “Lonicera japonica flower water extract-containing pharmaceutical composition for preventing or treating Helicobacter pylori infection” (GREEN CROSS WELLBEING CORPORATION, priority 2018, dated 2025)
# Experiments:
# [1] = system: Helicobacter pylori; experiment: Selective antibacterial effect on Helicobacter pylori versus Escherichia coli and Staphylococcus aureus; format: cell-based; details: under the same condition
# [2] = system: Helicobacter pylori (ATCC43504) strain; experiment: Antibacterial activity on Helicobacter pylori, paper disc clear zone; format: cell-based; details: 20 μl on 6 mm paper disc, 72 hours, pure inhibition zone
# Protocol: A Helicobacter pylori (ATCC43504) strain was smeared in a Brucella Agar medium containing 10% horse serum, and cultured for 3 days in an incubator of 37° C. and 10% CO: conditions. […] The Examples and Comparative Examples were cultured for 72 hours in an incubator of 37° C. and 10% CO: conditions, and then diameters of generated clear zones were measured and diameters of pure inhibition zones removing perforated diameters were shown in Table 3.
smiles,measurement,setting,value
"C=C[C@H]1[C@H](O[C@@H]2O[C@H](CO)[C@@H](O)[C@H](O)[C@H]2O)OC=C(C(=O)OC)[C@H]1CC(=O)O [Secoxyloganin, secoxyloganin]",selective antibacterial effect on Helicobacter pylori than the antibacterial effect on Escherichia coli and Staphylococcus aureus,[1],≥ 20 times
same,Clear zone (mm),[2]; 0.1 mg/ml,5 mm
same,Clear zone (mm),[2]; 1 mg/ml,9 mm
same,Clear zone (mm),[2]; 10 mg/ml,13 mm
